Assay results published in patent US20180325914A1, “INCREASING STORAGE OF VITAMIN A, VITAMIN D AND/OR LIPIDS” (Salk Institute for Biological Studies, priority 2014, published 2018).

Columns and labels:
[1] = test system: BRD2, BRD3, BRD4 (BETs) occupancy on chromatin; type: cell-based, human; settings: LX-2 cells; 500 nM, 16 hr
Procedure: Cells were then harvested for ChIP assay. The experimental procedure for ChIP was as previously described.
The procedure was as previously described^5,31. Briefly, short DNA reads were demultiplexed using the Illumina CASAVA v1.8.2. […] Only tags that map uniquely to the genome were considered for further analysis. Subsequent peak calling and motif analysis were conducted using HOMER, a software suite for ChIP-Seq analysis. The methods for HOMER, which are described below, have been implemented and are freely available on the internet (biowhat.ucsd.edu/homer/). One tag from each unique position was considered to eliminate peaks resulting from clonal amplification of fragments during the ChIP-Seq protocol. Peaks were identified by searching for clusters of tags within a sliding 200 bp window, requiring adjacent clusters to be at least 1 kb away from each other. The threshold for the number of tags that determine a valid peak was selected for a false discovery rate of <0.01, as empirically determined by repeating the peak finding procedure using randomized tag positions. […] Peaks are annotated to gene products by identifying the nearest RefSeq transcriptional start site. Visualization of ChIP-Seq results was achieved by uploading custom tracks onto the UCSC genome browser.
BETs are chromatin regulators^7.

primary HSCs [2] = experiment: qRT-PCR gene expression in primary murine HSCs; type: cell-based, mouse; settings: JQ1 500 nM, RT-qPCR
primary murine HSCs = experiment: Immunocytochemistry (Acta2) of HSC activation into myofibroblasts; type: cell-based, mouse; settings: day 6, JQ1 500 nM
Procedure: Primary murine HSCs were seeded onto chamber slides (Nunc). […] Media was aspirated, cells were washed twice with PBS (Gibco) and fixed in 10% buffered formalin at room temperature for 15 minutes. Fixative was removed and cells were washed three times with PBS. The slides were then blocked with 3% BSA and incubated with rabbit anti-ACTA2 antibody (at 1:100 dilution; Abcam) overnight at 4° C. After washing, the slides were incubated for 1 hour with Alexa Fluor546-labeled donkey anti-rabbit IgG antibody (at 1:200 dilution; Invitrogen). Finally, the slides were analyzed for fluorescence using an all-in-one type fluorescent microscope (BioZero BZ-9000; Keyence, Osaka, Japan). Nuclear counterstaining was performed using DAPI (Vector).

primary HSCs [3] = experiment: Cell proliferation assay (BrdU), primary HSCs; type: cell-based, mouse; settings: JQ1 500 nM
Excerpt: BrdU-positive cells were counted under fluorescent microscope (Olympus, IX51).

C57BL/6J mice [4] = experiment: CCl4 model of liver fibrosis, therapeutic study; type: in vivo, mouse; settings: JQ1 50 mg/kg IP
Procedure: (§1) The animals were terminated 72 hours after the final CCl4 injection and whole livers were collected for histological, cytological, biochemical and molecular analyses.
5 μm sections of formalin-fixed liver were stained following standard hematoxylin-eosin (H&E) and Sirius Red methods and reviewed by a pathologist who was blinded to the experimental conditions. Fibrosis was scored using the Ishak modified histological activity index (HAI) scoring system. Liver fibrosis was also quantified using Image J software on 10 non-contiguous Sirius Red stained sections. […] fibrosis was quantified using hydroxyproline assay. All images were obtained using a high-resolution Leica DFC420 digital camera mounted on an Olympus microscope equipped with ×4/0.13, ×10/0.30, ×20/0.50 and ×40/0.75 UplanFL N plan objective lenses and processed with the Leica Application Suite. Tissue hydroxyproline content was measured using a kit from Biovision (K555-100).
Liver samples were deparaffinized and rehydrated in PBS. Following antigen retrieval with the target retrieval solution (Dako, Glostrup, Denmark), endogenous peroxidase activity was blocked by incubation with 0.3% hydrogen peroxide. […]
Therefore, the ability of JQ1 to prevent progression of ongoing liver fibrosis was determined. […]

C57BL/6J mice [5] = experiment: Serum alanine aminotransferase (ALT) assay in CCl4 model; type: in vivo, mouse; settings: preventive CCl4 model; JQ1 50 mg/kg IP
Procedure: as §1
The ALT activity in mice serum was measured using a kit from Thermo Scientific (TR71121).

[6] = test system: p53 2.1.1 cell line in FVB/n hosts; experiment: Orthotopic allograft of p53 2.1.1 pancreatic cancer cells; type: in vivo, mouse
Procedure: The p53 2.1.1 cell line, a luciferase-expressing cell line derived from autochthonous pancreatic cancer in pure FVB/n mice, was used for orthotopic transplantation into pancreata of immune-competent FVB/n hosts. Cells were resuspended in 50% DMEM+10% FBS, 50% Matrigel and 1,000 cells per mouse were injected into the body of the pancreas. One week after transplantation, transplanted mice were subject to bioluminescence imaging to measure luciferase activity and, thus, tumor burden. […] Mice were imaged again to measure bioluminescence signal (tumor burden) at experimental endpoint; pancreata were removed, weighed, and fixed or flash-frozen for further analysis.

[7] = test system: pro-fibrotic gene expression (COL1A1) in LX-2 cells; experiment: qRT-PCR of pro-fibrotic gene expression in LX-2 cells; settings: JQ1 500 nM, 16 hr vs DMSO
[8] = 75 mg/kg JQ1 i.p. daily for 14 days
[9] = 75 mg/kg JQ1 i.p. daily for 14 days vs vehicle

SMILES: Cc1sc2c(c1C)C(c1ccc(Cl)cc1)=N[C@@H](CC(=O)OC(C)(C)C)c1nnc(C)n1-2 [JQ1, (S)-tert-butyl 2-(4-(4-chlorophenyl)-2,3,9-trimethyl-6H-thieno[3,2-f][1,2,4]triazolo[4,3-a][1,4]diazepin-6-yl)acetate]
- BET occupancy at the COL1A1 enhancer locus (ChIP) [1]: significantly diminished
- PAF1 and CDK9 (elongation cofactors) on chromatin [1]: displaced
- occupancy of BETs on chromatin (ChIP-Seq) [1]: dramatically reduces
- recruitment of serine 2 phosphorylated form (S2p) of RNA Pol II [1]: specific decrease
- sensitivity of BRD4 occupancy on super-enhancer regions to reduction, versus control enhancer regions [1]: more sensitive
- serine 5 Pol II phospho-form (S5p) [1]: little change
- Ccnd2 and Myc expression (primary HSCs [2]): without perturbing
- induction of Pdgfrb and Ccnd1 during HSC activation (primary HSCs [2]): disrupted induction
- HSCs transdifferentiation into myofibroblasts, phenotypically (morphology, Acta2 distribution) (primary murine HSCs): dramatically arrested
- BrdU incorporation into activated HSCs (primary HSCs [3]): significant decrease
- progression of liver fibrosis (histological scoring, Sirius red, hydroxyproline, marker gene expression) (C57BL/6J mice [4]; CCl4 three weeks, then CCl4/JQ1 co-treatment for three weeks): blocked the progression
- CCl4-induced HSC activation (quantitative Acta2 immunohistochemistry) (C57BL/6J mice [4]; chronic CCl4): dramatically reduced
- liver injury due to CCl4 assessed by serum ALT (C57BL/6J mice [5]): not significantly impacted
- BLI and pancreas weight [6, 8]: significantly reduced
- number of phospho-H3+ tumor cells, and number of CD45 and DAPI containing cells [6, 8]: significantly reduced
- decrease in cell proliferation (phospho-H3+) [6, 9]: about 50%
- decrease in leukocyte recruitment (CD45) [6, 9]: about 70%
- decrease in luciferase light units (tumor cell count, tumor burden) [6, 9]: about 33%
- repression of COL1A1 [7]: 4.5 fold
